Test results from patent US9695155B2, “Herbicidal substituted pyrimidinyloxy benzene compounds” (E. I. DU PONT DE NEMOURS AND COMPANY, priority 2013, dated 2017).

Tests used:
pigweed [1] = test: Test A preemergence; type: in vivo, Amaranthus retroflexus; settings: for Pigweed plant response rating: 500 g ai/ha
How it was run: (§1)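 Compounds in non-phytotoxic solvent with surfactant applied as soil spray preemergence, or postemergence to plants 2-10 cm at one- to two-leaf stage, in loam/sand. After approximately 10 days in greenhouse, injury rated visually versus untreated controls, 0 (no effect) to 100 (complete control).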

velvetleaf = test: Test A preemergence; type: in vivo, Abutilon theophrasti; settings: for Velvetleaf plant response rating: 500 g ai/ha
How it was run: as §1

morningglory = test: Test A postemergence; type: in vivo, Ipomoea spp.; settings: 0 to 100 scale where 0 is no effect and 100 is complete control
How it was run: as §1

pigweed [2] = test: Test A postemergence; type: in vivo, Amaranthus retroflexus; settings: 0 to 100 scale where 0 is no effect and 100 is complete control
How it was run: as §1

sedge, umbrella = test: Test B flooded paddy test; type: in vivo, Cyperus difformis; settings: Flood, 250 g ai/ha; 0 to 100 scale where 0 is no effect and 100 is complete control
How it was run: (§2)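 Visual ratings on a 0 to 100 scale, where 100 means complete control, compared treated plants with controls after 13 to 15 days in a greenhouse. Treatment went into paddy water 3 cm deep over the soil, applied to plants at the 2-leaf stage.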

Heteranthera limosa = test: Test B flooded paddy test; type: in vivo; settings: Flood, 250 g ai/ha; 0 to 100 scale where 0 is no effect and 100 is complete control
How it was run: as §2

barnyardgrass [3] = test: Test B flooded paddy test; type: in vivo, Echinochloa crus-galli; settings: Flood, 250 g ai/ha; 0 to 100 scale where 0 is no effect and 100 is complete control
How it was run: as §2

wheat, winter = test: Test C postemergence; type: in vivo, Triticum aestivum; settings: for Wheat plant response rating / Plant response rating, Wheat: scale 0 to 100 (0 no effect, 100 complete control)
How it was run: (§3)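 Greenhouse herbicide screen. Pre: seeded loam/sand, sprayed at planting. Post: 1–4 leaf plants (2–18 cm) in peat-based mix. Formulation: solvent mixture + surfactant, non-phytotoxic. Readout: visual % control vs untreated, 13–15 d; dash = not tested.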

corn = test: Test C postemergence; type: in vivo, Zea mays; settings: for Corn plant response rating / Plant response rating, Corn: scale 0 to 100 (0 no effect, 100 complete control)
How it was run: as §3

large (Lg) crabgrass = test: Test C postemergence; type: in vivo, Digitaria sanguinalis; settings: for Crabgrass, Large plant response rating / Plant response rating, Crabgrass, Large: scale 0 to 100 (0 no effect, 100 complete control)
How it was run: as §3

johnsongrass = test: Test C postemergence; type: in vivo, Sorghum halepense; settings: for Johnsongrass plant response rating / Plant response rating, Johnsongrass: scale 0 to 100 (0 no effect, 100 complete control)
How it was run: as §3

barnyardgrass [4] = test: Test C postemergence; type: in vivo, Echinochloa crus-galli; settings: for Barnyardgrass plant response rating / Plant response rating, Barnyardgrass: scale 0 to 100 (0 no effect, 100 complete control)
How it was run: as §3

oilseed rape = test: Test C postemergence; type: in vivo, Brassica napus; settings: for Oilseed Rape plant response rating / Plant response rating, Oilseed Rape: scale 0 to 100 (0 no effect, 100 complete control)
How it was run: as §3

waterhemp = test: Test C postemergence; type: in vivo, Amaranthus rudis; settings: for Waterhemp plant response rating / Plant response rating, Waterhemp: scale 0 to 100 (0 no effect, 100 complete control)
How it was run: as §3

chickweed = test: Test C postemergence; type: in vivo, Stellaria media; settings: for Chickweed plant response rating / Plant response rating, Chickweed: scale 0 to 100 (0 no effect, 100 complete control)
How it was run: as §3

[5] = 0 to 100 scale where 0 is no effect and 100 is complete control
[6] = 16 g ai/ha, postemergence, 0 is no effect, 100 is complete control
[7] = 31 g ai/ha, postemergence, visual rating, 13 to 15 days
[8] = 125 g ai/ha, postemergence, visual rating
[9] = 125 g ai/ha, 0 to 100 scale where 0 is no effect and 100 is complete control
[10] = Postemergence, 31 g ai/ha, 13 to 15 days
[11] = 16 g ai/ha, postemergence, visual rating, 13 to 15 days
[12] = Postemergence, 62 g ai/ha, 13 to 15 days

Cc1cnc(Oc2cccc(C#N)c2-n2cc(C(F)(F)F)cn2)nc1 [Compound 180]
Pigweed plant response rating (0 to 100 scale) (pigweed [1]; 125 g ai/ha): 100
Pigweed plant response rating (pigweed [1]; [5]): 100
Velvetleaf plant response rating (0 to 100 scale) (velvetleaf; 125 g ai/ha): 100
Velvetleaf plant response rating (velvetleaf; [5]): 100
Morningglory plant response rating (morningglory; 125 g ai/ha): 100
Plant response rating, Morningglory (morningglory; 500 g ai/ha): 100
Pigweed plant response rating (pigweed [2]; 125 g ai/ha): 100
Plant response rating, Pigweed (pigweed [2]; 500 g ai/ha): 100
Plant response rating, Sedge, Umbrella (sedge, umbrella): 80
Plant response rating, Ducksalad (Heteranthera limosa): 80
Plant response rating, Barnyardgrass (barnyardgrass [3]): 60
Plant response rating (0 to 100), Wheat (wheat, winter; [6]): 0
Wheat plant response rating (wheat, winter; [7]): 0
Plant response rating, Wheat (wheat, winter; [8]): 5
Plant response rating, Wheat (wheat, winter; Postemergence, 62 g ai/ha): 0
Plant response rating (0 to 100), Corn (corn; [6]): 0
Corn plant response rating (corn; [7]): 5
Plant response rating, Corn (corn; [8]): 10
Plant response rating, Corn (corn; Postemergence, 62 g ai/ha): 5
Plant response rating (0 to 100), Crabgrass, Large (large (Lg) crabgrass; [6]): 5
Crabgrass, Large plant response rating (large (Lg) crabgrass; [7]): 5
Plant response rating, Crabgrass, Large (large (Lg) crabgrass; [8]): 35
Plant response rating, Crabgrass, Large (large (Lg) crabgrass; Postemergence, 62 g ai/ha): 5
Plant response rating (0 to 100), Johnsongrass (johnsongrass; [6]): 0
Johnsongrass plant response rating (johnsongrass; [7]): 0
Plant response rating, Johnsongrass (johnsongrass; [8]): 5
Plant response rating, Johnsongrass (johnsongrass; Postemergence, 62 g ai/ha): 0
Barnyardgrass plant response rating (barnyardgrass [4]; [7]): 5
Plant response rating, Barnyardgrass (barnyardgrass [4]; [8]): 20
Plant response rating, Barnyardgrass (barnyardgrass [4]; Postemergence, 62 g ai/ha): 5
Plant response rating (0 to 100), Oilseed Rape (oilseed rape; [6]): 15
Oilseed Rape plant response rating (oilseed rape; [7]): 25
Plant response rating, Oilseed Rape (oilseed rape; [8]): 55
Plant response rating, Oilseed Rape (oilseed rape; Postemergence, 62 g ai/ha): 40
Plant response rating (0 to 100), Waterhemp (waterhemp; [6]): 25
Waterhemp plant response rating (waterhemp; [7]): 60
Plant response rating, Waterhemp (waterhemp; [8]): 75
Plant response rating, Waterhemp (waterhemp; Postemergence, 62 g ai/ha): 70
Plant response rating (0 to 100), Chickweed (chickweed; [6]): 50
Chickweed plant response rating (chickweed; [7]): 60
Plant response rating, Chickweed (chickweed; [8]): 80
Plant response rating, Chickweed (chickweed; Postemergence, 62 g ai/ha): 70

N#Cc1cccc(Oc2ncc(Cl)cn2)c1-n1cc(OC(F)F)cn1 [Compound 97]
Plant response rating, Pigweed (pigweed [1]; [9]): 100
Pigweed plant response rating (pigweed [1]; 0 to 100 scale, 0 no effect, 100 complete control, approx. 10 days): 100
Plant response rating, Velvetleaf (velvetleaf; [9]): 100
Plant response rating, Morningglory (morningglory; 125 g ai/ha): 90
Plant response rating, Morningglory (morningglory; 500 g ai/ha): 100
Plant response rating, Pigweed (pigweed [2]; 125 g ai/ha): 100
Plant response rating, Pigweed (pigweed [2]; 500 g ai/ha): 100
Plant response rating, Sedge, Umbrella (sedge, umbrella): 90
Plant response rating, Ducksalad (Heteranthera limosa): 95
Plant response rating, Barnyardgrass (barnyardgrass [3]): 40
Plant response rating (0 to 100), Wheat (wheat, winter; 125 g ai/ha, postemergence): 10
Plant response rating, Wheat (wheat, winter; [10]): 5
Plant response rating, Wheat (wheat, winter; Postemergence, 62 g ai/ha): 5
Corn plant response rating (corn; [11]): 5
Plant response rating (0 to 100), Corn (corn; 125 g ai/ha, postemergence): 15
Plant response rating, Corn (corn; [10]): 5
Plant response rating, Corn (corn; Postemergence, 62 g ai/ha): 10
Crabgrass, Large plant response rating (large (Lg) crabgrass; [11]): 5
Plant response rating (0 to 100), Crabgrass, Large (large (Lg) crabgrass; 125 g ai/ha, postemergence): 55
Plant response rating, Crabgrass, Large (large (Lg) crabgrass; [10]): 10
Plant response rating, Crabgrass, Large (large (Lg) crabgrass; Postemergence, 62 g ai/ha): 15
Johnsongrass plant response rating (johnsongrass; [11]): 5
Plant response rating (0 to 100), Johnsongrass (johnsongrass; 125 g ai/ha, postemergence): 5
Plant response rating, Johnsongrass (johnsongrass; [10]): 5
Plant response rating, Johnsongrass (johnsongrass; Postemergence, 62 g ai/ha): 15
Barnyardgrass plant response rating (barnyardgrass [4]; [11]): 10
Plant response rating (0 to 100), Barnyardgrass (barnyardgrass [4]; 125 g ai/ha, postemergence): 15
Plant response rating, Barnyardgrass (barnyardgrass [4]; [10]): 10
Plant response rating, Barnyardgrass (barnyardgrass [4]; Postemergence, 62 g ai/ha): 10
Plant response rating (0 to 100), Oilseed Rape (oilseed rape; 125 g ai/ha, postemergence): 80
Plant response rating, Oilseed Rape (oilseed rape; [10]): 60
Plant response rating, Oilseed Rape (oilseed rape; Postemergence, 62 g ai/ha): 80
Plant response rating (0 to 100), Waterhemp (waterhemp; 125 g ai/ha, postemergence): 95
Plant response rating, Waterhemp (waterhemp; [10]): 85
Plant response rating, Waterhemp (waterhemp; Postemergence, 62 g ai/ha): 90
Chickweed plant response rating (chickweed; [11]): 70
Plant response rating (0 to 100), Chickweed (chickweed; 125 g ai/ha, postemergence): 90
Plant response rating, Chickweed (chickweed; [10]): 60
Plant response rating, Chickweed (chickweed; Postemergence, 62 g ai/ha): 80

Clc1cnc(Oc2cccc(Cl)c2-n2cc(Cl)cn2)nc1 [Compound 220]
Pigweed plant response rating (0 to 100 scale) (pigweed [1]; 125 g ai/ha): 100
Pigweed plant response rating (pigweed [1]; [5]): 100
Velvetleaf plant response rating (0 to 100 scale) (velvetleaf; 125 g ai/ha): 20
Velvetleaf plant response rating (velvetleaf; [5]): 70
Morningglory plant response rating (morningglory; 125 g ai/ha): 50
Plant response rating, Morningglory (morningglory; 500 g ai/ha): 100
Pigweed plant response rating (pigweed [2]; 125 g ai/ha): 100
Plant response rating, Pigweed (pigweed [2]; 500 g ai/ha): 100
Plant response rating, Sedge, Umbrella (sedge, umbrella): 90
Plant response rating, Ducksalad (Heteranthera limosa): 100
Plant response rating, Barnyardgrass (barnyardgrass [3]): 0
Plant response rating (0 to 100), Wheat (wheat, winter; [6]): 0
Wheat plant response rating (wheat, winter; [7]): 0
Plant response rating, Wheat (wheat, winter; [8]): 0
Plant response rating, Wheat (wheat, winter; [12]): 0
Plant response rating (0 to 100), Corn (corn; [6]): 5
Corn plant response rating (corn; [7]): 10
Plant response rating, Corn (corn; [8]): 10
Plant response rating, Corn (corn; [12]): 10
Plant response rating (0 to 100), Crabgrass, Large (large (Lg) crabgrass; [6]): 5
Crabgrass, Large plant response rating (large (Lg) crabgrass; [7]): 5
Plant response rating, Crabgrass, Large (large (Lg) crabgrass; [8]): 5
Plant response rating, Crabgrass, Large (large (Lg) crabgrass; [12]): 5
Plant response rating (0 to 100), Johnsongrass (johnsongrass; [6]): 5
Johnsongrass plant response rating (johnsongrass; [7]): 0
Plant response rating, Johnsongrass (johnsongrass; [8]): 5
Plant response rating, Johnsongrass (johnsongrass; [12]): 5
Plant response rating (0 to 100), Barnyardgrass (barnyardgrass [4]; [6]): 5
Barnyardgrass plant response rating (barnyardgrass [4]; [7]): 10
Plant response rating, Barnyardgrass (barnyardgrass [4]; [8]): 15
Plant response rating, Barnyardgrass (barnyardgrass [4]; Postemergence, 62 g ai/ha): 10
Plant response rating (0 to 100), Oilseed Rape (oilseed rape; [6]): 50
Oilseed Rape plant response rating (oilseed rape; [7]): 65
Plant response rating, Oilseed Rape (oilseed rape; [8]): 90
Plant response rating, Oilseed Rape (oilseed rape; [12]): 85
Plant response rating (0 to 100), Waterhemp (waterhemp; [6]): 65
Waterhemp plant response rating (waterhemp; [7]): 70
Plant response rating, Waterhemp (waterhemp; [8]): 85
Plant response rating, Waterhemp (waterhemp; [12]): 75
Plant response rating (0 to 100), Chickweed (chickweed; [6]): 65
Chickweed plant response rating (chickweed; [7]): 70
Plant response rating, Chickweed (chickweed; [8]): 80
Plant response rating, Chickweed (chickweed; [12]): 80
